Assay results as given in patent publication US20140336218A1, “ARFORMOTEROL AND TIOTROPIUM COMPOSITIONS AND METHODS FOR USE” (priority 2008, published 2014).

What was measured:
COPD patients [1] = assay: Transition Dyspnea Index (TDI) in 2-week clinical trial; format: in vivo, human; conditions: for Patients with change ≧1 unit (TDI), n (%) / TDI, mean (SD) / Patients with change of ≧1 unit (TDI), n (%) / Difference between combined therapy and mono-therapies in TDI, LS mean / Patients with change of ≧1 unit (TDI), %: week 2; for Patients with change of ≧1 unit (TDI), %: cells print n (%); for improvement in TDI: patients with <50% predicted FEV1 at baseline
Description: (§1) This was a 2-week, prospective, multi-center (34 sites), randomized, modified blind, double dummy, parallel group study designed to evaluate the efficacy and safety of the combination of arformoterol 15 μg BID and tiotropium 18 μg QD (dosed sequentially) versus the individual mono-therapies in the treatment of COPD patients. The study was conducted according to the principles established by the Declaration of Helsinki (see, e.g., World Medical Association Declaration of Helsinki. Recommendations guiding physicians in biomedical research involving human subjects. JAMA 1997; 277:925-926.). Appropriate Institutional Review boards approved the protocol and written informed consent was obtained from the patients.
(§2) Eligible patients were randomized to receive one of three treatments for 14 days: nebulized arformoterol 15 μg (Brovana®, Sepracor Inc., Marlborough, Mass.) BID and placebo DPI QD, nebulized placebo BID and tiotropium 18 μg (Spriva® HandiHaler® Boehringer Ingelheim, Ridgefield, Conn.) DPI QD, or nebulized arformoterol 15 μg BID and tiotropium 18 μg DPI QD. The nebulized drug was administered first using the PARI LC Plus® nebulizer driven by the Duraneb 3000® compressor (Pari: Pari Respiratory Equipment Inc., Midlothian, Va.) at a flow rate of 3.3 L/minute followed (within 5 minutes) by the DPI administration (HandiHaler®). The tiotropium and placebo DPI capsules were identical in size and shape but differed in color.
At screening, the Baseline Dyspnea Index (BDI) (see, e.g., Mahler D A, Weinberg D H, Wells C K, Feinstein A R. The measurement of dyspnea. Contents, interobserver agreement, and physiologic correlates of two new clinical indexes. Chest 1984; 85:751-758; herein incorporated in its entirety by reference) was assessed prior to the first clinic dose, and at week 2 the Transition Dyspnea Index (see id.) was evaluated before first morning dose. The baseline focal score (range 0 to 12) and the transition focal score (range −9 to 9) were the sums of the functional impairment, magnitude of task, and magnitude of effort scores (see id.). Higher scores indicate less dyspnea at baseline (BDI) or greater improvement in dyspnea from baseline (TDI).
The study was designed to detect a mean treatment difference of time normalized FEV1AUC over 24 hours (FEV1AUC0-24) (the primary endpoint) of 0.075 L with a standard deviation of 0.016 L when comparing combined therapy with mono-therapy, using a two-sided 5% significance level, following 2-weeks of dosing for the primary comparison with 80% power. All efficacy analyses were performed on the ITT population. All statistical testing was 2-tailed and conducted at the 5% significance level, unless otherwise indicated. […] To control for multiple comparisons, statistical tests of mean treatment group differences were considered significant if the overall treatment effect in the model was statistically significant at the 5% level. Pulmonary function severity subgroup analysis was performed post hoc by stratifying patients according to the GOLD COPD guidelines (see, e.g., Pauwels R A, Buist A S, Calverley P M, Jenkins C R, Hurd S S. Global strategy for the diagnosis, management, and prevention of chronic obstructive pulmonary disease. NHLBI/WHO Global Initiative for Chronic Obstructive Lung Disease (GOLD) Workshop summary. Am J Respir Crit Care Med 2001; 163:1256-1276;; herein incorporated in its entirety by reference) (<30%, ≧30% to <50%, and ≧50%, respectively). Pairwise comparisons between treatment groups were performed using least square means (LS means) from the linear model with the study baseline (or predose where applicable) as a covariate and the treatment group as a fixed effect.

COPD patients [2] = assay: Inspiratory capacity in 2-week clinical trial; format: in vivo, human; conditions: for Mean (SD) inspiratory capacity improvement from baseline: 2-hours post-dosing; for Difference in trough FEV1 between combined therapy and mono-therapies, LS mean / Change in trough inspiratory capacity, mean (SD): ITT; for Difference in trough FEV1 between combined therapy and mono-therapies, LS mean / Change in trough inspiratory capacity, mean (SD) / Difference between combined therapy and mono-therapies in change in inspiratory capacity, LS mean: week 2; for Difference in trough FEV1 between combined therapy and mono-therapies, LS mean: printed below the trough inspiratory capacity line, combined therapy versus the mono-therapy; for Change in trough inspiratory capacity, mean (SD): trough = 24 hour time point after morning dose; for Difference between combined therapy and mono-therapies in change in inspiratory capacity, LS mean: combined versus the mono-therapy; for Change in Inspiratory Capacity, mean (SD): week 2 from study baseline
Description: as §1, §2
At week 0 and week 2, medical event calendars and blood samples were collected and vital signs and heart measurements analyzed. At week 0, spirometry was performed pre-morning dose, immediately (within 5 minutes) and at 30 minutes, 1, 2, 4, 6, 8, 10, and 12 hours post-first dose. After the 12-hour pulmonary function test patients self-administered the evening dose of study medication. At week 2, serial spirometry was also performed as at week 0, as well as immediately (within 5 minutes) following the evening dose (administered 12 hours after the morning dose) and 12.5, 13, 14, 16, 23, and 24 hours post-morning dose. Inspiratory capacity was evaluated pre-dose and at 2 hours post-morning dose at week 0, and pre-dose and 2, 11, 14, and 24 hours post-morning dose at week 2. All inspiratory capacity measurements were the mean of acceptable inspiratory capacity maneuvers, two of which were reproducible. Prior to an inspiratory capacity maneuver a patient had to have a stable expiratory level for about 10 breaths. Once the stable level was achieved, at the end of exhalation of a normal breath the patient was asked to make a steady and full inhalation at normal inspiratory flow rates until the lungs were completely full, and then to exhale at a normal rate.
All pulmonary function values used were the highest among the three acceptable maneuvers. The Investigator ensured that all spirometry was performed in accordance with the American Thoracic Society/European Respiratory Society Standardisation of Spirometry guidelines (see, e.g., Miller M R, Hankinson J, Brusasco V, Burgos F, Casaburi R, Coates A, et al. Standardisation of spirometry. Eur Respir J 2005; 26:319-338; herein incorporated in its entirety by reference). Centralized over-reading of spirometry and inspiratory capacity pulmonary function measures were used for quality control.
The study was designed to detect a mean treatment difference of time normalized FEV1AUC over 24 hours (FEV1AUC0-24) (the primary endpoint) of 0.075 L with a standard deviation of 0.016 L when comparing combined therapy with mono-therapy, using a two-sided 5% significance level, following 2-weeks of dosing for the primary comparison with 80% power. All efficacy analyses were performed on the ITT population. All statistical testing was 2-tailed and conducted at the 5% significance level, unless otherwise indicated.

[3] = ITT, transition focal score range −9 to 9
[4] = baseline percent predicted FEV1 <50%
[5] = baseline percent predicted FEV1 <50%, combined versus the mono-therapy
[6] = baseline percent predicted FEV1 ≧50%
[7] = baseline percent predicted FEV1 ≧50%, combined versus the mono-therapy

| Structure (SMILES) | Patients with change ≧1 unit (TDI), n (%) (COPD patients [1]; ITT) | TDI, mean (SD) (COPD patients [1]; [3]) | Patients with change of ≧1 unit (TDI), n (%) (COPD patients [1]; [4]) | TDI, mean (SD) (COPD patients [1]; [4]) | Difference between combined therapy and mono-therapies in TDI, LS mean (COPD patients [1]; [5]) | TDI, mean (SD) (COPD patients [1]; [6]) | Patients with change of ≧1 unit (TDI), % (COPD patients [1]; [6]) | Difference between combined therapy and mono-therapies in TDI, LS mean (COPD patients [1]; [7]) | improvement in TDI (COPD patients [1]) [units] | Mean (SD) inspiratory capacity improvement from baseline (COPD patients [2]) [L] | Difference in trough FEV1 between combined therapy and mono-therapies, LS mean (COPD patients [2]) [L] | Change in trough inspiratory capacity, mean (SD) (COPD patients [2]) | Difference between combined therapy and mono-therapies in change in inspiratory capacity, LS mean (COPD patients [2]; [4]) [L] | Change in Inspiratory Capacity, mean (SD) (COPD patients [2]; [4]) | Difference between combined therapy and mono-therapies in change in inspiratory capacity, LS mean (COPD patients [2]; [6]) [L] | Change in Inspiratory Capacity, mean (SD) (COPD patients [2]; [6]) | Difference between combined therapy and mono-therapies in TDI, LS mean (COPD patients [1]; ITT, combined therapy versus the mono-therapy) [L] |
| --- | --- | --- | --- | --- | --- | --- | --- | --- | --- | --- | --- | --- | --- | --- | --- | --- | --- |
| COc1ccc(C[C@@H](C)NC[C@H](O)c2ccc(O)c(NC=O)c2)cc1 [Arformoterol] | 50 (66.7) n (%) | 2.3 (2.4) | 34 (72.3) n (%) | 2.3 (2.3) | 1.3 | 2.3 (2.6) | 17 (57.1) % | 0.2 | 2.3 | 0.20 | 0.07 | 0.07 (0.30) L | 0.08 | 0.12 (0.31) L | 0.06 | −0.01 (0.27) L |  |
| C[N+]1(C)[C@@H]2C[C@@H](OC(=O)C(O)(c3cccs3)c3cccs3)C[C@H]1[C@@H]1O[C@@H]12 [Tiotropium] | 44 (57.1) n (%) | 1.8 (2.8) | 25 (52.1) n (%) | 1.6 (3.0) | 2.0 | 2.3 (2.5) | 19 (67.9) % | 0.3 | 1.6 | 0.19 | 0.12 | 0.02 (0.29) L | 0.17 | 0.02 (0.27) L | 0.02 | 0.04 (0.33) L | 1.3 |
